Where two headings read alike, the source gives them in different places.
Assays:
[1] = tested on: patients with atherosclerosis undergoing PCI; type: in vivo; details: for Agitation (Psychiatric disorders) / Chest Pain (General disorders and administration site conditions) / Diarrhea (Gastrointestinal disorders) / Dyspnea (Respiratory, thoracic, and mediastinal disorders) / Procedural Pain (Injury, poisoning, and procedural complications): treatment emergent adverse event
Procedure: The primary safety end point was severe bleeding not related to coronary-artery bypass grafting, according to the Global Use of Strategies to Open Occluded Coronary Arteries (GUSTO) criteria, at 48 hours. Several other bleeding definitions were also applied.

[2] = tested on: patients undergoing percutaneous coronary intervention (PCI); details: 30-day; for OR (95% CI): All-cause mortality / OR (95% CI): IDR / OR (95% CI): MI / OR (95% CI): Mortality/MI/IDR / OR (95% CI): Mortality/Q-wave MI/IDR / OR (95% CI): Mortality/Q-wave MI/Stent thrombosis / OR (95% CI): Q-wave MI / OR (95% CI): Stent thrombosis: cangrelor vs comparator arm; for Mortality/Q-wave MI/IDR / Mortality/Q-wave MI/Stent thrombosis: exploratory
Procedure: The diagnosis of non-ST-segment elevation myocardial infarction required troponin I or T greater than the upper limit of normal within 24 hours of randomization (or if troponin results were unavailable at that time, creatine kinase-myocardial band isoenzyme [CK-MB] greater than the upper limit of normal). The diagnosis of unstable angina required ischemic chest discomfort occurring at rest and lasting ≧10 minutes within the 24 hours prior to randomization and dynamic electrocardiographic changes; age ≧65 years and/or diabetes mellitus were also required.
The primary efficacy endpoint was the composite of mortality, myocardial infarction, or ischemia-driven revascularization at 48 hours. The primary analysis was performed on a modified intent-to-treat population. Confirmatory analyses were performed on an intent-to-treat population. Secondary endpoints included the individual rates of mortality, myocardial infarction, new Q-wave myocardial infarction, ischemia-driven revascularization, abrupt vessel closure, or stroke at 48 hours. Mortality at 30 days and 1 year was also recorded. The clinical events committee adjudicated myocardial infarction, Q-wave myocardial infarction, ischemia-driven revascularization, stent thromboses, and stroke (ischemic or hemorrhagic). The definition of stent thrombosis was similar to the Academic Research Consortium definition of definite stent thrombosis. After review of the prespecified analyses, two exploratory endpoints less reliant on periprocedural biomarker ascertainment were examined. The exploratory endpoints, which were composed of prespecified and adjudicated endpoints, were the composite of mortality, Q-wave myocardial infarction, or ischemia-driven revascularization and the composite of mortality, Q-wave myocardial infarction, or stent thrombosis. Bleeding and adverse events through 48 hours were compared.
All efficacy analyses were performed on the modified intent-to-treat population, defined as all randomized patients who received at least one dose of study drug and underwent the index PCI. All safety-related analyses were performed on the safety population, which included all patients who received at least one dose of assigned study drug. Patients in the safety analyses were assigned to a treatment arm based on treatment actually received, not as randomized. Intent-to-treat analyses are also presented for full disclosure of results. All statistical tests were two-tailed using a level of significance of 0.05. […] Logistic regression was also used to analyze the majority of the remaining secondary endpoints.

[3] = 48 hours, Non-CABG Related Bleeding, Safety, Cangrelor vs Clopidogrel
[4] = 48 hours, Non-CABG Related Bleeding, Safety, n/N
[5] = 48 hours, Non-CABG Related Bleeding, Safety, rate in parentheses
[6] = 48 hours, Non-CABG Related, Safety, Cangrelor vs Clopidogrel
[7] = 48 hours, Non-CABG Related, Safety, n/N
[8] = 48 hours, Non-CABG Related, Safety, rate in parentheses
[9] = 48 hours, non-CABG-related, safety population, Cangrelor vs Clopidogrel
[10] = 48 hours, safety population, n/N

## CSCCNc1nc(SCCC(F)(F)F)nc2c1ncn2[C@@H]1O[C@H](COP(=O)(O)OP(=O)(O)C(Cl)(Cl)P(=O)(O)O)[C@@H](O)[C@H]1O [Cangrelor, cangrelor]
[1]; 48 hours
  rate of GUSTO-defined severe bleeding (primary safety end point): 0.16%
[1]; [3]
  BARC criteria Type 3 OR: 1.69
  BARC criteria Type 3a OR: 2.75
  BARC criteria Type 3b OR: 1.12
  BARC criteria Type 3c OR: 2.00
[1]; [4]
  BARC criteria Type 3: 22/5529
  BARC criteria Type 3a: 11/5529
  BARC criteria Type 3b: 9/5529
  BARC criteria Type 3c: 2/5529
[1]; [5]
  BARC criteria Type 3: (0.4)
  BARC criteria Type 3a: (0.2)
  BARC criteria Type 3b: (0.2)
  BARC criteria Type 3c: (0.0)
[1]; [6]
  ACUITY criteria Major bleeding OR: 1.72
  ACUITY criteria Major without ≧ 5 cm hematoma OR: 1.62
  ACUITY criteria Minor bleeding OR: 1.42
[1]; [7]
  ACUITY criteria Major bleeding: 235/5529
  ACUITY criteria Major without ≧ 5 cm hematoma: 42/5529
  ACUITY criteria Minor bleeding: 653/5529
[1]; [8]
  ACUITY criteria Major bleeding: (4.3)
  ACUITY criteria Major without ≧ 5 cm hematoma: (0.8)
  ACUITY criteria Minor bleeding: (11.8)
[1]; 48 hours, cangrelor vs clopidogrel
  odds ratio, GUSTO-defined severe bleeding: 1.50
[1]; [9]
  GUSTO-defined moderate bleeding, Odds Ratio (95% CI): 1.69 (0.85-3.37)
  GUSTO-defined severe or life-threatening bleeding, Odds Ratio (95% CI): 1.50 (0.53-4.22)
  GUSTO-defined severe or moderate bleeding, Odds Ratio (95% CI): 1.63 (0.92-2.90)
  TIMI-defined major bleeding, Odds Ratio (95% CI): 1.00 (0.29)-3.45)
  TIMI-defined major or minor bleeding, Odds Ratio (95% CI): 1.75 (0.73-4.18)
  TIMI-defined minor bleeding, Odds Ratio (95% CI): 3.00 (0.81-11.10)
[1]; 48 hours, safety population, Cangrelor vs Clopidogrel
  Any blood transfusion, Odds Ratio (95% CI): 1.56 (0.83-2.93)
[1]; in vivo
  adverse events that led to discontinuation of the study drug: 0.5%
  rate of adverse events related to treatment: 20.2%
  transient dyspnea: 1.2%
[1]; 48 hours, safety population
  Agitation (Psychiatric disorders): (0.2) %
  Chest Pain (General disorders and administration site conditions): (1.0) %
  Diarrhea (Gastrointestinal disorders): (0.3) %
  Dyspnea (Respiratory, thoracic, and mediastinal disorders): (1.2) %
  Procedural Pain (Injury, poisoning, and procedural complications): (0.1) %
[1]; [10]
  Agitation (Psychiatric disorders): 11/5529
  Chest Pain (General disorders and administration site conditions): 55/5529
  Diarrhea (Gastrointestinal disorders): 15/5529
  Dyspnea (Respiratory, thoracic, and mediastinal disorders): 64/5529
  Procedural Pain (Injury, poisoning, and procedural complications): 4/5529
[2]; ITT
  All-cause mortality: 36 (1.3) no. (%)
  IDR: 37 (1.4) no. (%)
  MI: 190 (7.1) no. (%)
  Mortality/MI/IDR: 230 (8.6) no. (%)
  Q-wave MI: 8 (0.3) no. (%)
  Stent thrombosis: 15 (0.6) no. (%)
  OR (95% CI): All-cause mortality: 0.754 (0.487, 1.167)
  OR (95% CI): IDR: 0.743 (0.483, 1.142)
  OR (95% CI): MI: 0.924 (0.752, 1.135)
  OR (95% CI): Mortality/MI/IDR: 0.885 (0.734, 1.067)
  OR (95% CI): Mortality/Q-wave MI/IDR: 0.718 (0.524, 0.984)
  OR (95% CI): Mortality/Q-wave MI/Stent thrombosis: 0.648 (0.453, 0.927)
  OR (95% CI): Q-wave MI: 0.526 (0.222, 1.242)
  OR (95% CI): Stent thrombosis: 0.508 (0.272, 0.950)
  Mortality/Q-wave MI/IDR: 69 (2.6) no. (%)
  Mortality/Q-wave MI/Stent thrombosis: 51 (1.9) no. (%)
[2]; MITT
  All-cause mortality: 33 (1.2) no. (%)
  IDR: 37 (1.4) no. (%)
  MI: 189 (7.1) no. (%)
  Mortality/MI/IDR: 226 (8.5) no. (%)
  Q-wave MI: 8 (0.3) no. (%)
  Stent thrombosis: 15 (0.6) no. (%)
  OR (95% CI): All-cause mortality: 0.725 (0.461, 1.140)
  OR (95% CI): IDR: 0.796 (0.515, 1.231)
  OR (95% CI): MI: 0.929 (0.756, 1.142)
  OR (95% CI): Mortality/MI/IDR: 0.892 (0.739, 1.078)
  OR (95% CI): Mortality/Q-wave MI/IDR: 0.730 (0.528, 1.008)
  OR (95% CI): Mortality/Q-wave MI/Stent thrombosis: 0.647 (0.447, 0.935)
  OR (95% CI): Q-wave MI: 0.566 (0.237, 1.352)
  OR (95% CI): Stent thrombosis: 0.529 (0.282, 0.993)
  Mortality/Q-wave MI/IDR: 66 (2.5) no. (%)
  Mortality/Q-wave MI/Stent thrombosis: 48 (1.8) no. (%)
[2]; Safety population
  All-cause mortality: 34 (1.3) no. (%)
  IDR: 37 (1.4) no. (%)
  MI: 188 (7.1) no. (%)
  Mortality/MI/IDR: 226 (8.5) no. (%)
  Q-wave MI: 8 (0.3) no. (%)
  Stent thrombosis: 15 (0.6) no. (%)
  OR (95% CI): All-cause mortality: 0.747 (0.477, 1.170)
  OR (95% CI): IDR: 0.779 (0.504, 1.202)
  OR (95% CI): MI: 0.913 (0.743, 1.122)
  OR (95% CI): Mortality/MI/IDR: 0.884 (0.732, 1.067)

Source: patent US8680052B1, “Methods of treating, reducing the incidence of, and/or preventing ischemic events” (The Medicines Company, priority 2013, dated 2014)
